The values that follow come from paper PMC10783114, “Establishment of a screening platform based on human coronavirus OC43 for the identification of microbial natural products with antiviral activity” (Microbiology Spectrum, 2023).

In series [1] the test system is HCoV-OC43. As to the kind of experiment: Resazurin-based CPE inhibition assay in HCoV-OC43-infected MRC-5 cells. To be noted: for antiviral activity against HCoV-OC43 infection in MRC-5 cells (in words): tested in both assays (CPE inhibition and HCS). In kind it is cell-based, Human betacoronavirus OC43. On the technique in general: Alamar Blue is a resazurin reagent that responds to reducing activity.

In series [2] the test system is HCoV-OC43. Nature of the series: High-content screening assay, anti-OC43 immunostaining of infected MRC-5 cells. Type of series: cell-based, Human betacoronavirus OC43.
The subject of series [3] is HCoV-OC43. Further details: method as in PMID 30918074. To be noted: mouse model ref 29; cited from earlier work.
The nature of a further series: in vitro. The following applies: human.
A further series concerns MERS. The following applies: marmosets infected with MERS ref 35; cited from earlier work.
In series [4] the test system is HCoV-OC43. Nature of the series: RT-qPCR of extracellular HCoV-OC43 RNA in culture supernatants. Type of series: cell-based, Human betacoronavirus OC43. The following applies: 72 h incubation. As to the method:
Viral RNA from supernatants was purified using the Macherey-Nagel Nucleospin RNA Kit. RT-qPCR was performed in a single step using the One-Step TB Green PrimeScript RT-PCR Kit II (Takara Bio). The HCoV-OC43 nucleocapsid gene was amplified with the following primers: the forward primer 5′ […]-3′ and the reverse primer 5′ […]-3′ ([27]). A standard curve was generated with purified HCoV-RNA (Vircell).
Background: Quantitative PCR measures a nucleic acid by following its amplification.

Series [5] deals with MRC-5 cells. Nature of the series: Resazurin cytotoxicity assay in non-infected MRC-5 cells. To be noted: MRC-5 cells.
Series [6] deals with MRC-5 cells.
Series [7] is described as follows: Resazurin cytotoxicity assay in non-infected MRC-5 cells. To be noted: human.
[8] abbreviates: Betacoronavirus 1, MRC5, MRC-5 infected with HCoV-OC43 at 0.1 MOI, 96 h with drug, 5 days post-infection, resazurin readout, read-out: EC50 (CPE inhibition assay).
Setting [9] is: Betacoronavirus 1, OC43, MRC5, infected MRC-5, 72 h incubation with drug, 4 days post-infection, read-out: EC50 (HCS assay).
Setting [10] is: Betacoronavirus 1, OC43, MRC5, read-out: EC50 (HCS assay).
The mark [11] stands for this setting: CC50, non-infected MRC-5 cells, 96 h incubation, resazurin.

SMILES strings stand for the structures. Like-named read-outs stand apart in the source and are kept apart here. Non-standard residues stand in square brackets, D forms with d. Residues, ends and D or L forms follow the SMILES beside them. dLac(3-vinyl) = C=CC[C@@H](O)C(=O)O; dHica = CC(C)C[C@@H](O)C(=O)O; NMeV = CN[C@H](C(=O)O)C(C)C; NMeA = CN[C@@H](C)C(=O)O; βAla = NCCC(=O)O

For the compound `COc1c(C)c2c(c(O)c1C/C=C(\C)CCC(=O)OCCN1CCOCC1)C(=O)OC2` [Mycophenolate mofetil, mycophenolate mofetil], the EC50 (in general, the concentration that produces a half-maximal response) was determined as 20.7 µM with HCoV-OC43 [1] (setting [8]) and 1.91 µM in the series with HCoV-OC43 [2] (setting [9]). Also, the “antiviral activity against HCoV-OC43 infection in MRC-5 cells (in words)” value (from here on “antiviral activity … (in words)”) in the series on HCoV-OC43 [1] is given as “showed activity”. In addition, the “antiviral activity against HCoV-OC43 in a mouse model” value with HCoV-OC43 [3] is reported as “no antiviral activity”. Moreover, in the series “in vitro”, the CC50 was > 200 µM. In addition, the “side effects in vivo” value in the series with MERS is listed as “severe side effects”.
For the compound `O=C1OCC(Cc2ccccc2)=C1c1ccccc1` [Gymnoascolide A, gymnoascolide A], the “antiviral activity … (in words)” value with HCoV-OC43 [1] is reported as “showed activity”. In addition, the concentration giving a half-maximal response (EC50) in the series with HCoV-OC43 [2] (infected MRC-5, 72 h incubation with drug, 4 days post-infection, read-out: EC50 (HCS assay)) was 20.6 µM. For the same compound, the “HCoV-OC43 RNA level in supernatant” value in the series on HCoV-OC43 [4] (40 µM) is recorded as “under 20%”. For the same compound, the “HCoV-OC43 RNA level (viral load) in supernatant” value with HCoV-OC43 [4] (80 µM) is recorded as “below 5%”. Moreover, in the series with MRC-5 cells [5], the “toxicity against MRC-5 host cells (in words)” value is listed as “no evident toxicity”.
Take `CCN(CC)CCCC(C)Nc1ccnc2cc(Cl)ccc12` (stereo not drawn) [Chloroquine, chloroquine]: the EC50 with HCoV-OC43 [1] (Betacoronavirus 1, OC43, MRC5, read-out: EC50 (CPE inhibition assay)) turned out to be 6.22 µM; in the series on HCoV-OC43 [2] (setting [10]), 1.23 µM.
Turning to `CCCCC/C=C\C/C=C\CCCCCCCC(=O)O` [Linoleic acid, linoleic acid], the half-maximal effective concentration (EC50) with HCoV-OC43 [1] (setting [8]) was 25.6 µM; with HCoV-OC43 [2] (setting [9]), 18.3 µM. Further, the “antiviral activity … (in words)” value in the series on HCoV-OC43 [1] was “showed activity”. Besides, in the series on HCoV-OC43 [4] (15 µM), the “HCoV-OC43 RNA load in supernatant” value is “below 50%”. The “toxicity against MRC-5 host cells (in words)” value in the series on MRC-5 cells [6] was “no evident toxicity”. Also, the CC50 at 96 h in “in vitro” is > 40 µM.
Take `NC(=O)c1ncn([C@@H]2O[C@H](CO)[C@@H](O)[C@H]2O)n1` [Ribavirin, ribavirin]: in the series with HCoV-OC43 [1], the selectivity index was ~8 and the “antiviral activity … (in words)” value was “showed activity”. Moreover, the half-maximal effective concentration (EC50) in the series with HCoV-OC43 [1] (setting [8]) turned out to be 118 µM. The EC50 in the series on HCoV-OC43 [2] (setting [10]) worked out at 92.1 µM. Besides, the CC50 at 96 h in [7] (non-infected MRC-5 cells) is > 800 µM.
With `CC[C@H](C)[C@@H]1NC(=O)[C@@H]2CCCN2C(=O)[C@@H](CC(C)C)OC(=O)CCNC(=O)[C@H](C)N(C)C(=O)[C@H](C(C)C)N(C)C1=O` [Destruxin B, destruxin B] (cyclo([dHica]PI[NMeV][NMeA][βAla])), the “antiviral activity … (in words)” value is recorded as “did not have an effect” with HCoV-OC43 [1] and “non-active” in the series with HCoV-OC43 [1] (listed as destruxin B). Further, in series [7] (setting [11]), the CC50 at 96 h is ~10 µM.
Consider `C=CC[C@H]1OC(=O)CCNC(=O)[C@H](C)N(C)C(=O)[C@H](C(C)C)N(C)C(=O)[C@H]([C@@H](C)CC)NC(=O)[C@@H]2CCCN2C1=O` [Destruxin A, destruxin A] (cyclo([dLac(3-vinyl)]PI[NMeV][NMeA][βAla])), for which the “antiviral activity … (in words)” value is on record as “did not have an effect” in the series on HCoV-OC43 [1] and “non-active” in the series on HCoV-OC43 [1] (listed as destruxin A). Besides, in series [7] (setting [11]), the CC50 at 96 h was ~10 µM.
